Structures are written as SMILES.

The source of these data is patent publication US20240148684A1, “COMPOUNDS AND METHODS FOR TREATING CONGENITAL ERYTHROPOIETIC PORPHYRIA” (RUTGERS, THE STATE UNIVERSITY OF NEW JERSEY, priority 2021, published 2024).

The subject of data set [1] is zebrafish larvae. As to conditions: in vivo.
Experimental: Uro-I (uroporphyrin-I dihydrochloride; Frontier Scientific, Catalog #: U830-1) was initially resuspended in 0.1M NaOH and the pH was adjusted to neutral using 0.2 M Na2HPO4. Six days post fertilization (dpf), ABTL zebrafish larvae were injected via the retro-orbital route with approximately 3 nL of 7.2 mM Uro-I solution and control larvae were injected with vehicle (0.1M NaOH in 0.2M Na2HPO4). After injection, larvae were immediately transferred to Petri dishes wrapped with heavy duty aluminum foil and kept in a dark incubator, at 28.5° C., for 24 h. Where indicated, 7 dpf larvae were injected with approximately 2 nL of 0.2% w/v calcein (Sigma, Catalog #: C0875) 2 h prior to imaging.
Seven dpf AB×TL zebrafish larvae were anesthetized with tricaine-S (Syndel) and immobilized in 0.5% low melt agarose. Fluorescent z-series were captured using an Olympus FV500 confocal microscope (10× objective, confocal aperture of 300 mm) with an optical thickness of 10 mm and z-step size of 10 mm. Calcein was excited with a 488 nm argon laser and emission was captured between 505 and 525 nm. Porphyrin was excited with a 405 nm laser diode and emission was captured above 560 nm. Three-dimensional image reconstruction and quantification of fluorescent signal and bone volume were performed using Imaris 3D visualization and analysis software v7.7 (Bitplane).
Data set [2] relates to Saos-2 cells. It counts as cell-based, human. As to the method: Saos-2 cells were purchased from ATCC. Cells were maintained in McCoy 5A medium supplemented with 15% FBS, penicillin/streptomycin, non-essential amino acids, Hepes and L-glutamine. To induce mineralization, cells were treated with mineralization activation cocktail (MAC), consisting of 5 mM b-glycerophosphate, […] ascorbic acid and 10 nM dexamethasone. Uro-I solution preparation and treatment of zebrafish larvae and Saos-2 cells
(§1) Saos-2 cells were plated in 12-well plates (1.5×10^5 cells/well) and allowed to attach overnight. Cells were then treated with Uro-I ([…] final concentration) or vehicle in medium containing MAC for 3 days. Experiments were conducted in a dark room and cells were kept shielded from light in a tissue culture incubator.
Etretinate (Selleck Chemicals, Houston, TX) and tretinoin (Selleck Chemicals, Houston, TX) treatment was performed as described for acitretin. In addition to being used as prophylaxis, the therapeutic effect of acitretin was evaluated. […] Porphyrin binding, excretion and bone volume were analyzed. […]
Cell mineralization was quantified by ARS (Sigma Aldrich St. Louis, MO) staining as described previously (Harper, E. et al. PLoS One 12, e0188192, doi:10.1371/journal.pone.0188192 (2017)), with minor modifications. […] ARS standard curve (from 2-0.02 mM) and samples were transferred in triplicate to a 96-well plate and absorbance was measured at 405 nm.

Data set [3] concerns Saos-2 cells. The class given is cell-based, human. On the procedure:
as §1
(§2) Etretinate (Selleck Chemicals, Houston, TX) and tretinoin (Selleck Chemicals, Houston, TX) treatment was performed as described for acitretin. In addition to being used as prophylaxis, the therapeutic effect of acitretin was evaluated. Six dpf AB×TL zebrafish larvae were injected with Uro-I and 24 hours later they were transferred to E3 medium containing […] acitretin or DMSO. Porphyrin binding, excretion and bone volume were analyzed. Saos-2 cells were treated with […] acitretin or DMSO in medium containing MAC and Uro-I.
Saos-2 cells RNA was extracted using RNeasy mini kit (Qiagen, Catalog #: 74104). and gene expression was carried using the RT^2 Profiler PCR Array for human cellular stress responses (Qiagen, Catalog #: PAHS-019ZA) following manufacturer's instructions. A previously described qPCR (Elenbaas, J. S. et al. Gastroenterology 154, 1625-1629 e1628, doi:10.1053/j.gastro.2018.01.024 (2018)) was performed for COL1A1 and SERPINH1 (IDT Integrated DNA Technologies, PrimeTime assay ID Hs.PT.58.15517795 and Hs.PT.56a.26865778, respectively).
This is another data set of the same source.

The subject of data set [4] is uro-I injected zebrafish larvae. The data set can be described thus: Zebrafish CEP model, prophylaxis protocol (retinoid co-administered with uro-I injection). It counts as in vivo, Zebrafish (Danio rerio). As to conditions: 24 hours, vs DMSO; for porphyrin fluorescence in bones (operculum and vertebrae): 10 μM in E3 medium. On the procedure: Techniques that can be used to perform the methods of the invention are described by Elenbaas, J. S., et al., FASEB, 2016, 30, 1798-1810; and Cunha, J. B., Scientific Reports, 2021, 11, 9601.
Validation and characterization of acitretin as a potential treatment for CEP was performed. Six dpf ABTL zebrafish larvae injected with uro-I were immediately transferred to 10 cm plastic dishes containing 10 μM acitretin or DMSO in E3 medium (prophylaxis protocol FIG. 2A) and incubated for 24 hours in the dark at 28.5° C. Porphyrin binding to bones and bone volume were analyzed by confocal microscopy as described above. Porphyrin excretion into the medium was quantified. Uro-I-injected larvae were transferred to 96-well plates, one larva/well, […] of […] acitretin or DMSO/well. Medium was collected after 24 hours and porphyrin was quantified as described previously.
as §2

Data set [5] shares this test system. Briefly: Zebrafish CEP model, therapeutic protocol (acitretin 24 hours after uro-I injection). It counts as in vivo, Zebrafish (Danio rerio). As to conditions: acitretin from 24 hours after uro-I, further 24 hours. As to the method:
as §2

Data set [6] deals with Saos-2 cells. Briefly: Saos-2 immunoblotting of ER stress (BiP) and autophagy (LC3-II) markers. The class given is cell-based, human. As to conditions: acitretin with MAC and Uro-I, vs DMSO. As to the method:
as §1, §2
Saos-2 cells were lysed in ice cold RIPA buffer (Sigma Aldrich, St. Louis, MO) with protease inhibitor cocktail (Thermo Scientific, Waltham, MA) and scraped. Whole cell lysate was kept in the dark until reducing SDS-PAGE sample buffer was added. Immunoblotting, band densitometry and mass spectrometry were conducted as described previously (Maitra, D. et al. Cell Mol Gastroenterol Hepatol 8, 659-682 e651, doi:10.1016/j.jcmgh.2019.05.010 (2019); and Maitra, D. et al. J Biol Chem 290, 23711-23724, doi:10.1074/jbc.M114.636001 (2015)). […]
On the technique in general: Immunoblotting shows a protein as a band on a membrane.

Data set [7] has as its system uro-I injected zebrafish larvae. Briefly: High throughput drug screening (Prestwick library) in zebrafish CEP model. It counts as in vivo, Zebrafish (Danio rerio). As to conditions: 24 h, visual analysis vs DMSO-treated larvae, drug tested individually. On the procedure:
Unbiased high throughput drug screening was performed using the Prestwick library (Prestwick Chemical), which consists of 1,280 small molecules chosen by the manufacturer for their bioavailability and safety. […] Zebrafish E3 medium ([…]) was transferred to a 96-well half area imaging plate (Corning, cat. n. 3880) using a Multidrop dispenser (ThermoFisher Scientific). Compounds ([…] of 2 mM stock) were added to the wells using a multichannel plate handling robot (Biomek FX, Beckman Coulter Life Sciences). […] Control wells contained […] of DMSO.
Six dpf NHGRI-1 zebrafish larvae were injected retro-orbitally with approximately 2 nL of a solution of Uro-I (10 mM) and calcein (0.2% w/v). Immediately after injection, larvae were transferred to a 96-well test plate (two larvae in […] of E3 medium/well), including the DMSO control wells. Control larvae injected with the drug vehicle (dimethyl sulfoxide, DMSO) and calcein were transferred to E3 medium-only containing wells. Larvae were kept in the dark, at 28.5° C. After 24 h, they were anesthetized with tricaine-S, centrifuged at 500×g for two minutes and imaged using the ImageXpress Micro Cellular Imaging and Analysis System (Molecular Devices). Positive hits were selected based on visual identification of calcein signal increase and porphyrin signal decrease compared to DMSO-treated larvae. […]

Data set [8] relates to zebrafish larvae. Briefly: Acitretin dose-response curve, toxicity to zebrafish larvae. The class given is in vivo, Zebrafish (Danio rerio). As to conditions: dose-response 0.5-12.5 mM.
The mark [9] stands for this setting: acitretin in uro-I treated cells.

Turning to `Cl.Cl.O=C(O)CCC1=C(CC(=O)O)c2cc3nc(cc4[nH]c(cc5[nH]c(cc1n2)c(CC(=O)O)c5CCC(=O)O)c(CC(=O)O)c4CCC(=O)O)C(CC(=O)O)=C3CCC(=O)O` [Uro-I, uroporphyrin-I dihydrochloride], in the data set with zebrafish larvae [1], the “operculum and 4th vertebra volume” value is reported as “significantly decreased”. Also, the “mineralization (ARS staining)” value in the data set on Saos-2 cells [2] is on record as “decreased significantly”. In addition, in the data set on Saos-2 cells [3], the HSPA5 expression increase is reported as 2.1 ×, the SERPINH1 expression decrease amounted to 3.3 ×, the SOD3 expression increase came out at 2.8 × and the “reduction in COL1A1 expression” value was 90%.

As to `CC1=C(/C=C/C(C)=C/C=C/C(C)=C/C(=O)O)C(C)(C)CCC1` [tretinoin, all trans-retinoic acid], in data set [4], the “porphyrin fluorescence in bones (operculum and vertebrae)” value (“porphyrin fluorescence in bones” below) is given as “significantly reduced”; the “operculum volume (bone volume)” value is listed as “did not prevent loss in bone volume”.

Regarding `CCOC(=O)/C=C(C)/C=C/C=C(C)/C=C/c1c(C)cc(OC)c(C)c1C` [etretinate], the “porphyrin fluorescence in bones” value in data set [4] is “did not demonstrate significant activity”.

As to `COc1cc(C)c(/C=C/C(C)=C/C=C/C(C)=C/C(=O)O)c(C)c1C` [acitretin], in data set [5], the bone porphyrin fluorescence result is reported as “did not decrease”, the operculum volume entry is recorded as “increased” and the “uro-I excretion to the medium” value was “increased”. Besides, in data set [4], the “porphyrin fluorescence in bones” value is on record as “significantly reduced”; the “operculum volume (bone volume)” value is given as “no effect”; the “uro-I excretion into the medium” value is on record as “increased”. In the data set with Saos-2 cells [2] (10 mM acitretin in medium containing MAC and Uro-I), the “uro-I-mediated loss of mineralization (ARS staining)” value is “did not prevent”. In addition, in the data set with Saos-2 cells [6], the “BiP level (ER stress response)” value is listed as “reducing BiP level” and the “LC3-II (autophagic flux)” value was “reducing LC3-II”. In the data set on Saos-2 cells [3] (setting [9]), the SOD3 downregulation was found to be 3.8 fold, the “Upregulation of COL1A1” value is reported as 1.7 × and the “Upregulation of SERPINH1” value is 5.4 ×. Moreover, the “uro-I accumulation in bones (screening hit)” value in data set [7] is “decreased uro-I accumulation in bones”. Also, in the data set on zebrafish larvae [8], the “toxicity to zebrafish larvae” value is given as “without being toxic”.
